# Assay: gradient 5% acetonitrile 3 min, to 50% in 2 min, to 85% in 15 min, held 3 min, 100 µL/min
# Conditions: column: Zorbax Extend-C18 2.1 x 50 mm; eluents: water / acetonitrile, 0.1% formic acid
# Method in brief: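 Each retention time is based on an adduct peak selected computationally and verified by manual inspection. Measurements used HPLC–quadrupole time-of-flight mass spectrometry in positive and negative ionization mode on mixtures of ~100 pure standards. Chromatography ran on a Zorbax Extend-C18 column (2.1 × 50 mm, 1.8 μm) at 100 μL/min with water and acetonitrile, each containing 0.1% formic acid, and dead and dwell volumes of 40 μL and 900 μL.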
row,RP-LC retention time [s],SMILES
1,668,CCc1noc(-c2cccnc2N2CCCN(Cc3c(F)cccc3Cl)CC2)n1
2,700,Cc1cc2c(cc1S(=O)(=O)N1CCCC1C(=O)Nc1ccc3c(c1)OCCO3)OCC(=O)N2 (stereo not given)
3,610,O=C(NC1CCCCCC1)C1CCN(c2ccncc2)CC1
4,1200,Cc1ccc(-c2nc(C3CC(=O)N(c4ccc(Cl)cc4)C3)no2)cc1C (stereo not given)
5,658,CCc1nncn1C1CCN(S(=O)(=O)c2cc(F)ccc2C)CC1
6,830,COc1ccc(-c2ccc(=O)n(CCCNS(=O)(=O)/C=C/c3ccccc3)n2)cc1
7,654,CCN(CC)Cc1ccc2cc(COC(=O)Nc3ccc(C(=O)NO)cc3)ccc2c1
8,1090,CCOc1ccc(-n2c(=O)c3sccc3n(Cc3nc(-c4ccc(C)cc4)no3)c2=O)cc1
9,757,Cc1ccc(-n2ccn3c(CCC(=O)NCCc4c[nH]c5ccccc45)nnc3c2=O)cc1C
10,799,COc1ccc(-c2cn3c(CC(=O)Nc4ccc(Cl)cc4)csc3n2)cc1OC
11,715,CCCCC(=O)N1CC(F)(F)C[C@H]1c1nnc(-c2cnccn2)o1
12,613,O=C(C1CCN(S(=O)(=O)c2ccc3[nH]c(=O)ccc3c2)CC1)N1CCOCC1
13,690,COc1ccc(-c2cc(N3CCC(NC(=O)c4ccc5c(c4)OCO5)C3)n[nH]2)cc1 (stereo not given)
14,810,O=C(NCCC1=CCCCC1)c1cccn1-c1cccnc1
15,760,CC(=O)Nc1ccc(SCc2nnc(-c3ccc4c(c3)OCO4)o2)cc1
16,1170,CCOc1cccc(CNC(=O)c2ccc3c(=O)n(Cc4ccccc4)c(N(CC)CC)nc3c2)c1
17,987,COc1ccccc1N1CCN(c2ccc3cc(S(=O)(=O)N4CCCCC4)ccc3n2)CC1
18,837,O=C(NC1CC1)c1ccc(OCC2CCN(C(=O)c3c(F)cccc3Cl)CC2)cc1
19,731,O=C(N[C@H]1C[C@@H]2C[C@H]1CN2C(=O)c1cc2c(s1)CCCC2)c1cccnc1
20,945,Cc1ccccc1-c1noc(CCn2nc(-c3ccc4c(c3)OCO4)ccc2=O)n1
21,902,Cc1nc(-c2ccccc2)nn1C1CCN(S(=O)(=O)c2ccc(Cl)s2)C1 (stereo not given)
22,727,O=C(CCc1c(-c2ccc(Br)cc2)nc2ccccn12)Nc1ccc(F)c(F)c1

row,RP-LC retention time [s],SMILES
1,1070,Cc1ccc(C)c(N2CCN(C(=O)c3ccc(C)c(NC(=O)C4=CSCCO4)c3)CC2)c1
2,923,COc1ccc(C(=O)Nc2cnn(C)c(=O)c2N2CCCCC2)cc1
3,980,COc1ccccc1C(=O)Nc1cc(-c2ccccn2)no1
4,572,CS(=O)(=O)N1CCCNCCNC(=O)CC1c1ccccc1 (stereo not given)
5,578,CCN1CCN(CCNC(=O)c2ccc3nc(-c4ccc(Cl)cc4)cn3c2)CC1
6,667,CCCC(NC(=O)c1ccsc1)C(=O)Nc1nc2ccccc2[nH]1 (stereo not given)
7,869,CC(=O)N1CCc2cc(C(=O)N3CCCC3)ccc21
8,590,CCN(CC)CCNC(=O)C1CCCN(c2ccc(-c3ccc(C)cc3)nn2)C1 (stereo not given)
9,1150,COc1ccc(-c2nnc(-c3cc(S(=O)(=O)N4CCCCC4)ccc3Cl)o2)cc1
10,1080,CC(CCc1ccccc1)NC(=O)c1ccccc1NC(=O)C1=CSCCO1 (stereo not given)
11,660,Cc1ccc(C(=O)N2CCC(CCOCC3CC3)CC2)cn1
12,588,O=C(NCc1ccccn1)C1CCN(c2nc3cccnc3s2)CC1
13,756,CCN1C(=O)c2cccnc2Sc2cc(CNC(=O)c3cccc(C#N)c3)ccc21
14,1240,CCOc1ccc(CNC(=O)c2cc3c(-c4cccs4)nn(-c4ccccc4)c3n2CC)cc1
15,838,CC(Oc1cccc(Cl)c1)c1nc(-c2ccc3c(c2)ncn3CCC(=O)N2CCCC2)no1 (stereo not given)
16,833,CN(C)c1cnc(-n2cc(NC(=O)c3ccc(C(F)(F)F)cc3)cn2)nc1
17,1220,CCCCCNC(=O)c1ccc(Oc2nccnc2N2CCC(C)CC2)cc1
18,975,COc1ccc(-c2cc3nn(CC(=O)Nc4cc(C)ccc4C)c(=O)n3c(C)n2)cc1
19,653,O=C(c1ccc(Br)cc1)N1CCN(c2nnc3ccccn23)CC1
20,975,CCc1noc(-c2ccc(SCC(=O)N3CCC(C)CC3)nc2)n1
21,859,CCc1ccc(C2=C(C)C(N3CCCN(C(=O)c4ccsc4)CC3)=NS2(=O)=O)cc1
22,650,CC1=C(c2ccccc2)S(=O)(=O)N=C1N1CCC(NC(=O)C2CCOC2)CC1 (stereo not given)

row,RP-LC retention time [s],SMILES
1,763,Cc1cc(Nc2ccccc2)nc(N2CCN(C(=O)Nc3cccc(Cl)c3)CC2)n1
2,900,Cc1nc2c(NC(=O)c3ccc(C(F)(F)F)s3)cccn2n1
3,591,CN(C)C(CNS(=O)(=O)c1cc(Cl)ccc1Cl)c1cccs1 (stereo not given)
4,1040,CCCN1C(=O)COc2ccc(-c3csc(NC(=O)c4ccc(OC)cc4)n3)cc21
5,612,O=C1CCN(C(=O)C2CCN(C(=O)c3ccoc3)CC2)CCCCCCN1
6,804,CN(CC1CCOCC1)S(=O)(=O)c1ccccc1F
7,833,CCc1noc(-c2c(S(=O)(=O)NC3CCCC3)c(C)n(C)c2C)n1
8,722,Cc1noc(C)c1C1CCCN1C(=O)c1ccc2c(c1)OCO2 (stereo not given)
9,828,O=C(Nc1ccc(C2(C(=O)NCC3CCCO3)CC2)cc1)c1ccc(Br)cc1 (stereo not given)
10,982,CCn1ccc2sc(C)c(C(=O)NCc3c(C)cc(C)cc3C)c2c1=O
11,662,CC(C)CCN1CCC(N2CCN(S(=O)(=O)c3ccccc3F)CC2)C1=O (stereo not given)
12,833,O=C(N[C@H]1C[C@@H]2C[C@H]1N(S(=O)(=O)c1cccs1)C2)c1ccccc1
13,753,CCCNC(=O)c1cc(C)nc2c(Cl)cccc12
14,1280,CCOc1ccc(-c2cc3c(=O)n(Cc4nc(-c5cccc(Br)c5)no4)ncn3n2)cc1
15,937,CCCc1nc(-c2c(C)cc(C)nc2NC(=O)c2ccc(F)cc2Cl)no1
16,733,CCOC(=O)C1CCN(c2cc3c(cc2NC(=O)C(C)C)n(C)c(=O)c(=O)n3C)CC1
17,671,C=CCNC(=O)c1ccc2c(c1)N(C)C(=O)CS2
18,928,O=C(Cn1nc(N2CCSCC2)c2ccccc2c1=O)Nc1ccccc1F
19,1030,Cc1cccc(N2CCN(C(=O)C3CCN(c4ncnc5c4oc4ccccc45)CC3)CC2)c1C
20,704,CCCC(NC(=O)Cc1ccccc1C)C(=O)Nc1nc2ccccc2[nH]1 (stereo not given)
21,1090,CCOc1ccc(Cc2nc(-c3cccc(-c4ccnn4C)c3)no2)cc1OCC
22,593,Cn1cc(CC(=O)NCC2CC2)c2cccnc21

row,RP-LC retention time [s],SMILES
1,1220,CC(C)n1c(=O)oc2cc(-c3noc(-c4cc(F)cc(F)c4)n3)ccc21
2,1160,CCc1sc(NC(=O)c2sc(C)nc2C)nc1-c1ccc(Br)cc1
3,1380,COC(=O)c1ccccc1NC(=O)C1CCCN(c2nc3c(s2)c(C)nn3-c2ccccc2)C1 (stereo not given)
4,861,CCC(=O)Nc1ccc(C2(C(=O)N3CCN(c4ccccc4)CC3)CCC2)cc1
5,870,Cc1nnc2ccc(S(=O)(=O)N(Cc3ccccc3)c3ccc(F)cc3)cn12
6,1290,COc1nc2ccccc2nc1N1CCCC(C(=O)Nc2cc(C)c(Br)cc2C)C1 (stereo not given)
7,894,O=c1n(CCOc2ccc(F)cc2)nc2c(S(=O)(=O)N3CCCCC3)cccn12
8,796,COc1ccccc1CNC(=O)C(=O)NCc1ccsc1
9,723,CCOc1ccc(C(=O)Nc2cc(-c3cn4cccnc4n3)ccc2OC)cc1
10,1030,Cc1nn(-c2nc3ccccc3[nH]2)c2c1C(=O)CC(/C=C/c1ccccc1)C2 (stereo not given)
11,718,O=C(NC1CCN(C(=O)c2cc(-c3cccs3)[nH]n2)CC1)c1ccccc1Cl
12,604,CCCNC(=O)N1CCC(c2nc(-c3ccncc3)no2)C1 (stereo not given)
13,777,O=C(NCCC1CCN(C(=O)Nc2ccc(F)cc2F)CC1)C1CCCC1
14,806,COCCNC(=O)NC1CCN(c2nc3cccnc3n(Cc3ccccc3)c2=O)CC1
15,1170,CC(C)CNS(=O)(=O)c1cc(-c2nc(CC(C)C)cs2)cs1
16,645,COC[C@@H]1CN(Cc2ccc(Cl)c(F)c2)C[C@H]1c1nc(C)no1
17,668,COCCCNc1ncc(C(=O)O)c(-c2cccc(OC)c2)n1
18,694,COc1ccc(OC)c(CNC(=O)c2cn3cc(C)ccc3n2)c1
19,794,CCOc1ccccc1OCC(=O)c1ccc(O)cc1O
20,798,CCn1ccc2sc(C)c(C(=O)NCc3ccc(F)cc3)c2c1=O
21,824,O=C(NCc1ccc(Cl)cc1)C1CCN(c2ccc(SCc3ccccc3)nn2)CC1
22,760,COc1cccc(NC(=O)N2CCC3(C2)C(=O)N(C)c2ccccc23)c1 (stereo not given)

row,SMILES,RP-LC retention time [s]
1,CCOc1ccc(CNC(=O)CN2CC=C(c3cnn(-c4ccccc4)c3)CC2)cc1OCC,746
2,CC12NC(Cc3ccccc31)c1ccccc12 (stereo not given),670

# Reference: the METLIN SMRT retention time set (Domingo-Almenara et al. 2019)
